Reference: PubChem BioAssay AID248 (DTP/NCI, 2004)
Inconclusive results and toxic doses are left out. Cut-off read from the data, not from the text of the source: active = T/C of 150% or more; inactive = T/C below 125%.

Test system: L1210 leukemia ip in BDF1 mice, survival T/C
Assay: NCI In Vivo Anticancer Drug Screen. Data for tumor model L1210 Leukemia (intraperitoneal) in B6D2F1 (BDF1) mice
Settings: endpoint: mean survival time, higher = longer survival
How it was run: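 Survival endpoint. Drug-treated group vs vehicle group, expressed as T divided by C. Tumor passaged by transplantation.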

[1] = dose: 100.0 mg/kg/injection, schedule: Q01DX009 (ip), vehicle: Klucel (hydroxypropylcellulose) (HPC)
[2] = dose: 100.0 mg/kg/injection, schedule: Q04DX003 (ip), vehicle: Klucel (hydroxypropylcellulose) (HPC)
[3] = dose: 200.0 mg/kg/injection, schedule: Q01DX009 (ip), vehicle: Klucel (hydroxypropylcellulose) (HPC)
[4] = dose: 200.0 mg/kg/injection, schedule: Q04DX003 (ip), vehicle: Klucel (hydroxypropylcellulose) (HPC)
[5] = dose: 400.0 mg/kg/injection, schedule: Q01DX009 (ip), vehicle: Klucel (hydroxypropylcellulose) (HPC)
[6] = dose: 400.0 mg/kg/injection, schedule: Q04DX003 (ip), vehicle: Klucel (hydroxypropylcellulose) (HPC)
[7] = dose: 100.0 mg/kg/injection, schedule: Q01DX001 (ip), vehicle: saline
[8] = dose: 200.0 mg/kg/injection, schedule: Q01DX001 (ip), vehicle: saline
[9] = dose: 400.0 mg/kg/injection, schedule: Q01DX001 (ip), vehicle: saline
[10] = dose: 100.0 mg/kg/injection, schedule: Q04DX003 (ip), vehicle: saline with Tween-80
[11] = dose: 100.0 mg/kg/injection, schedule: Q04DX003 (ip), vehicle: saline
[12] = dose: 200.0 mg/kg/injection, schedule: Q04DX003 (ip), vehicle: saline
[13] = dose: 400.0 mg/kg/injection, schedule: Q04DX003 (ip), vehicle: saline
[14] = dose: 50.0 mg/kg/injection, schedule: Q01DX001 (ip), vehicle: carboxymethylcellulose (CMC)
[15] = dose: 100.0 mg/kg/injection, schedule: Q01DX001 (ip), vehicle: carboxymethylcellulose (CMC)
[16] = dose: 200.0 mg/kg/injection, schedule: Q01DX001 (ip), vehicle: carboxymethylcellulose (CMC)
[17] = dose: 400.0 mg/kg/injection, schedule: Q01DX001 (ip), vehicle: carboxymethylcellulose (CMC)
[18] = dose: 50.0 mg/kg/injection, schedule: Q01DX009 (ip), vehicle: saline with Tween-80
[19] = dose: 100.0 mg/kg/injection, schedule: Q01DX009 (ip), vehicle: saline with Tween-80

Measured: T/C

Cc1c(C)c([N+](=O)[O-])c(I)c(C)c1[N+](=O)[O-]
inactive: dose: 75.0 mg/kg/injection, schedule: Q01DX009 (ip), vehicle: Klucel (hydroxypropylcellulose) (HPC) 98 % of control | dose: 75.0 mg/kg/injection, schedule: Q04DX003 (ip), vehicle: Klucel (hydroxypropylcellulose) (HPC) 102 % of control | dose: 150.0 mg/kg/injection, schedule: Q01DX009 (ip), vehicle: Klucel (hydroxypropylcellulose) (HPC) 98 % of control | dose: 150.0 mg/kg/injection, schedule: Q04DX003 (ip), vehicle: Klucel (hydroxypropylcellulose) (HPC) 102 % of control | dose: 300.0 mg/kg/injection, schedule: Q01DX009 (ip), vehicle: Klucel (hydroxypropylcellulose) (HPC) 97 % of control | dose: 300.0 mg/kg/injection, schedule: Q04DX003 (ip), vehicle: Klucel (hydroxypropylcellulose) (HPC) 98 % of control

COc1ccc(/C=C\C(=O)/C=C/c2ccc(OC)cc2)cc1
inactive: [1] 98 % of control | [2] 94 % of control | [3] 98 % of control | [4] 94 % of control | [5] 88 % of control | [6] 100 % of control

CCCCCCC(c1ccccc1)c1ccccc1
inactive: [7] 100 % of control | [8] 97 % of control | [9] 100 % of control

CC1(C)C[N+](C)(Cc2ccccc2)C1
inactive: [10] 101 % of control

CN(C)Cc1cc(Cl)cc(Cc2cc(Cl)cc(CN(C)C)c2O)c1O
inactive: [7] 100 % of control | [11] 93 % of control | [8] 94 % of control | [12] 88 % of control | [9] 96 % of control | [13] 95 % of control

C1=C(N2CCOCC2)CCC(N2CCOCC2)=C1
inactive: dose: 50.0 mg/kg/injection, schedule: Q01DX009 (ip), vehicle: saline 108 % of control | dose: 100.0 mg/kg/injection, schedule: Q01DX009 (ip), vehicle: saline 95 % of control | [11] 98 % of control | dose: 200.0 mg/kg/injection, schedule: Q01DX009 (ip), vehicle: saline 95 % of control | [12] 95 % of control

COc1cccnc1/C=N/NC(N)=S
active: dose: 12.5 mg/kg/injection, schedule: Q01DX009 (ip), vehicle: saline with Tween-80 150 % of control

C=C1C(=O)O[C@@H]2[C@H]3O[C@]3(C)CCC=C(C)CC[C@@H]12
inactive: dose: 6.25 mg/kg/injection, schedule: Q01DX009 (ip), vehicle: alcohol 97 % of control | dose: 12.5 mg/kg/injection, schedule: Q01DX009 (ip), vehicle: alcohol 103 % of control | dose: 25.0 mg/kg/injection, schedule: Q01DX009 (ip), vehicle: alcohol 95 % of control

Cc1ccc(CN(C)C)c(C(O)(c2ccccc2)c2ccccc2)c1
inactive: [14] 96 % of control | [15] 107 % of control | [16] 100 % of control | [17] 96 % of control

O=C(CNC(=O)Nc1cccc(Cl)c1)N/N=C/c1cccc([N+](=O)[O-])c1
inactive: [18] 98 % of control | [19] 95 % of control | dose: 200.0 mg/kg/injection, schedule: Q01DX009 (ip), vehicle: saline with Tween-80 98 % of control

NC(=S)NN=C1CCCCCCCCCCC1
inactive: [14] 106 % of control | [15] 98 % of control | [16] 95 % of control | [17] 88 % of control

COc1cc2c(cc1OC)C(Cc1cc3c(cc1[N+](=O)[O-])OCO3)=NCC2
inactive: [7] 96 % of control | [8] 96 % of control | [9] 93 % of control

Cc1ccc(S(=O)(=O)N2CCc3ccccc3C(=O)C2)cc1
inactive: [7] 97 % of control | [8] 94 % of control | [9] 94 % of control

O=C(Nc1ccc(CN2CCOCC2)cc1)c1ccc(C(=O)Nc2ccc(CN3CCOCC3)cc2)cc1
inactive: dose: 37.5 mg/kg/injection, schedule: Q01DX Z (ip), vehicle: water 86 % of control | dose: 75.0 mg/kg/injection, schedule: Q01DX Z (ip), vehicle: water 91 % of control

COc1cc(OC)c(NC(=O)Nc2ccc([N+](=O)[O-])cc2OC)cc1Cl
inactive: [1] 101 % of control | [3] 95 % of control | [5] 97 % of control

CCOC(=O)Cc1nc2ccc(C)cc2[nH]1
inactive: dose: 100.0 mg/kg/injection, schedule: Q04DX002 (ip), vehicle: Klucel (hydroxypropylcellulose) (HPC) 100 % of control | dose: 200.0 mg/kg/injection, schedule: Q04DX002 (ip), vehicle: Klucel (hydroxypropylcellulose) (HPC) 100 % of control | dose: 400.0 mg/kg/injection, schedule: Q04DX002 (ip), vehicle: Klucel (hydroxypropylcellulose) (HPC) 115 % of control

NC1=C(c2ccccc2)C(=O)c2ccccc21
inactive: [1] 107 % of control | [2] 106 % of control | [3] 86 % of control | [4] 95 % of control | [5] 96 % of control | [6] 90 % of control

O=C1CCC(=O)N1SC(Cl)(Cl)Cl
inactive: dose: 7.5 mg/kg/injection, schedule: Q01DX009 (ip), vehicle: saline 101 % of control | dose: 15.0 mg/kg/injection, schedule: Q01DX009 (ip), vehicle: saline 101 % of control | dose: 30.0 mg/kg/injection, schedule: Q01DX009 (ip), vehicle: saline 106 % of control | dose: 45.0 mg/kg/injection, schedule: Q01DX009 (ip), vehicle: saline 99 % of control | dose: 70.0 mg/kg/injection, schedule: Q01DX009 (ip), vehicle: saline 92 % of control | dose: 100.0 mg/kg/injection, schedule: Q01DX001 (ip), vehicle: other 103 % of control | dose: 100.0 mg/kg/injection, schedule: Q04DX002 (ip), vehicle: saline with Tween-80 87 % of control | dose: 105.0 mg/kg/injection, schedule: Q01DX009 (ip), vehicle: saline 89 % of control | dose: 200.0 mg/kg/injection, schedule: Q01DX001 (ip), vehicle: other 95 % of control | dose: 240.0 mg/kg/injection, schedule: Q01DX009 (ip), vehicle: saline 88 % of control | dose: 300.0 mg/kg/injection, schedule: Q01DX001 (ip), vehicle: other 98 % of control | dose: 360.0 mg/kg/injection, schedule: Q01DX009 (ip), vehicle: saline 86 % of control

O=C1N(Cl)C(=O)C(c2ccc(C(F)(F)F)cc2)(c2ccc(C(F)(F)F)cc2)N1Cl
inactive: [18] 88 % of control | [19] 100 % of control | [10] 102 % of control | dose: 200.0 mg/kg/injection, schedule: Q04DX003 (ip), vehicle: saline with Tween-80 100 % of control

CC1CC(C(C)CC(=O)O)C(=O)O1 (centres undefined)
inactive: [7] 102 % of control | [11] 111 % of control | [8] 95 % of control | [12] 108 % of control | [9] 97 % of control | [13] 101 % of control
